{"source": "patent US6818780B2", "about": "“P-hydroxyphenyl propionic acid derivatives as antiproliferative agents” (Consejo Superior de Investigaciones Cientificas, priority 2000, dated 2004)", "key": {"murine splenocytes [1]": {"system": "murine splenocytes", "assay": "Test of lymphocyte proliferation: proliferation of murine splenocytes (tritiated thymidine incorporation)", "format": "cell-based, Bal b/c mice", "conditions": "range 100-0.75 μg/ml"}, "murine splenocytes [2]": {"system": "murine splenocytes", "assay": "Test of lymphocyte proliferation: proliferation of murine splenocytes (tritiated thymidine incorporation)", "format": "cell-based, Bal b/c mice", "conditions": "for Proliferation of murine splenocytes, mitogen Con A 2.5 μg/ml (cpm ± DS) / Proliferation of murine splenocytes, mitogen LPS 10 μg/ml (cpm ± DS) / Proliferation of murine splenocytes, mitogen PHA 50 μg/ml (cpm ± DS) / Proliferation of murine splenocytes, mitogen a CD3 20 μg/ml (cpm ± DS): 72 h incubation", "experimental": "Proliferation of Murine Splenocytes. Material and Methods\nTest of Lymphocyte Proliferation\nCulture medium: DMEM+penicillin 50 UI/ml+streptomycin 50 µg/ml+glutamine 2 mM+10% foetal calf serum (complete medium) (FLOW).\nBal b/c mice were used, male, aged 6-8 weeks (IFFA-CREDO).\nThe cell “pellet” is resuspended in complete medium at a concentration of 4×10^6 cells/ml\nIn a dish with 96 flat-bottom wells, seriated dilutions are made of the mitogen problem sample with or without “lactone” in a volume of […] in complete medium to which […] 2ME have been added. All the determinations are made in triplicate.\n100 μl of the cell suspension are then added, leaving a final volume of 200 μl.\nThe dish is incubated in a stove at 37° C., 5% CO2 for 66 h.\nFollowing that incubation period, 1 μCi of tritiated thymidine is added to each well.\nThe dish is again incubated for 6 h.\nOnce that new incubation period has ended, the dish is processed in a Skatron Harvester, using special Wathman filter paper for this.\nThe cpm are determined in a liquid scintillation counter.\nNegative control: cells in the presence of complete culture medium.\nPositive control: cells in the presence of some mitogen.\nArithmetic mean of cpm±standard deviation (1)\nThe statistical significance is determined by the Student t method.\nThe results are summarised in the following tables (the cpm are stated following a pulse of tritiated thymidine. The samples of splenocytes were cultivated for 72 h in the presence of mitogen and lactone at the stated concentrations)."}, "[3]": {"system": "human peripheral blood mononuclear cells", "assay": "Stability studies: antiproliferative activity of lactone kept one year in DMSO, human peripheral blood mononuclear cells", "format": "cell-based", "conditions": "for Proliferation of human peripheral blood mononuclear cells, Medium (cpm ± DS) / Proliferation of human peripheral blood mononuclear cells, PHA 10 μg/ml (cpm ± DS) / Proliferation of human peripheral blood mononuclear cells, PHA + rhIL-2 (cpm ± DS): sample kept one year at room temperature at 40.0 mg/ml in DMSO", "experimental": "General culture conditions: All cell cultures were developed under conditions of sterility in a vertical laminar flow chamber, using single-use sterile materials or materials sterilised in an autoclave or with ethylene oxide. The cultures were conserved in a stove kept at a temperature of 37° C., in an atmosphere with 5% CO2 and relative humidity of 95%. In the various experiments performed, the purified CMSP cell preparations were incubated in sterile dishes with 96 wells at concentrations of 5×10^4 cells/well (200 μl) in the presence of different concentrations of different mitogens for 5 days.\nThe method used for quantifying the cell proliferation was analysis of the incorporation of ^3H-thymidine (^3H-T) into DNA synthesised de novo, detecting the emission of β radiation from the dry extracts of cell cultures to which the tritiated base had been added before its finalisation and collection. The synthesis of DNA was done in triplicate on sterile dishes with 96 flat-bottom wells.\nFrom 20 to 24 hour prior to terminating the cell culture, 1 μCi of ^3H-T was added to each well containing medium; the cultures were gathered by suction through a glass filter, using a Skatron culture collector for this.\nThe synthesis of DNA has been expressed in counts per minute (cpm). Each test was conducted in triplicate, with those data having a variability greater than 10% compared to the mean of the triplicate being rejected, since they could indicate a technical error or contamination in the culture. The cultures were carried out at a constant cell volume per well, as well as at a constant volume of 200 μl.\nThe sample remains for one year at room temperature and at a concentration of 40.0 mg/ml in DMSO."}, "[4]": {"conditions": "murine splenocytes, 72 h with mitogen and lactone"}}}
{"smiles": "C=C1C(=O)OC(CCc2ccc(OC)cc2)C1C", "note": "(stereo not shown) [lactone]", "values": [{"measurement": "Cytotoxicity effects on murine splenocytes", "setting": "murine splenocytes [1]", "value": "Nor was are cytotoxicity effects found"}, {"measurement": "Proliferation of murine splenocytes, mitogen Con A 2.5 μg/ml (cpm ± DS)", "setting": "murine splenocytes [2]; Lactone 0.75 μg/ml", "value": "131,523 cpm"}, {"measurement": "Proliferation of murine splenocytes, mitogen Con A 2.5 μg/ml (cpm ± DS)", "setting": "murine splenocytes [2]; Lactone 1.5 μg/ml", "value": "150,400 cpm"}, {"measurement": "Proliferation of murine splenocytes, mitogen Con A 2.5 μg/ml (cpm ± DS)", "setting": "murine splenocytes [2]; Lactone 3 μg/ml", "value": "92,600 ± 100 cpm"}, {"measurement": "Proliferation of murine splenocytes, mitogen Con A 2.5 μg/ml (cpm ± DS)", "setting": "murine splenocytes [2]; Lactone 6 μg/ml", "value": "78,200 ± 725 cpm"}, {"measurement": "Proliferation of murine splenocytes, mitogen Con A 2.5 μg/ml (cpm ± DS)", "setting": "murine splenocytes [2]; Lactone 12 μg/ml", "value": "370 ± 20", "unit": "cpm"}, {"measurement": "Proliferation of murine splenocytes, mitogen Con A 2.5 μg/ml (cpm ± DS)", "setting": "murine splenocytes [2]; Lactone 25 μg/ml", "value": "244 ± 15", "unit": "cpm"}, {"measurement": "Proliferation of murine splenocytes, mitogen LPS 10 μg/ml (cpm ± DS)", "setting": "murine splenocytes [2]; Lactone 25 μg/ml", "value": "3,200 ± 400 cpm"}, {"measurement": "Proliferation of murine splenocytes, mitogen PHA 50 μg/ml (cpm ± DS)", "setting": "murine splenocytes [2]; Lactone 25 μg/ml", "value": "21,000 cpm"}, {"measurement": "Proliferation of murine splenocytes, mitogen a CD3 20 μg/ml (cpm ± DS)", "setting": "murine splenocytes [2]; Lactone 25 μg/ml", "value": "5,600 ± 300 cpm"}, {"measurement": "Proliferation of murine splenocytes, mitogen Con A 2.5 μg/ml (cpm ± DS)", "setting": "murine splenocytes [2]; Lactone 50 μg/ml", "value": "190 ± 10", "unit": "cpm"}, {"measurement": "Proliferation of murine splenocytes, mitogen LPS 10 μg/ml (cpm ± DS)", "setting": "murine splenocytes [2]; Lactone 50 μg/ml", "value": "2,700 ± 120 cpm"}, {"measurement": "Proliferation of murine splenocytes, mitogen PHA 50 μg/ml (cpm ± DS)", "setting": "murine splenocytes [2]; Lactone 50 μg/ml", "value": "19,000 cpm"}, {"measurement": "Proliferation of murine splenocytes, mitogen a CD3 20 μg/ml (cpm ± DS)", "setting": "murine splenocytes [2]; Lactone 50 μg/ml", "value": "1,235 ± 200 cpm"}, {"measurement": "Proliferation of murine splenocytes, mitogen Con A 2.5 μg/ml (cpm ± DS)", "setting": "murine splenocytes [2]; Lactone 100 μg/ml", "value": "147 ± 10", "unit": "cpm"}, {"measurement": "Proliferation of murine splenocytes, mitogen LPS 10 μg/ml (cpm ± DS)", "setting": "murine splenocytes [2]; Lactone 100 μg/ml", "value": "614 ± 35", "unit": "cpm"}, {"measurement": "Proliferation of murine splenocytes, mitogen PHA 50 μg/ml (cpm ± DS)", "setting": "murine splenocytes [2]; Lactone 100 μg/ml", "value": "19,500 cpm"}, {"measurement": "Proliferation of murine splenocytes, mitogen a CD3 20 μg/ml (cpm ± DS)", "setting": "murine splenocytes [2]; Lactone 100 μg/ml", "value": "285 ± 20", "unit": "cpm"}, {"measurement": "Inhibition of proliferation induced by ConA, antiCD3 and LPS", "setting": "murine splenocytes [2]; [4]", "value": "clearly demonstrated its capacity for inhibiting proliferation"}, {"measurement": "Inhibition of proliferation induced by PHA", "setting": "murine splenocytes [2]; [4]", "value": "but not that induced by PHA"}, {"measurement": "Proliferative effect per se on murine splenocytes", "setting": "murine splenocytes [2]; no mitogen, range 100-0.75 μg/ml, sample dissolved in DMSO at 40.0 mg/ml", "value": "No effect"}, {"measurement": "Proliferation of human peripheral blood mononuclear cells, Medium (cpm ± DS)", "setting": "[3]; Lactone 0.25 μg/ml", "value": "283 ± 9", "unit": "cpm"}, {"measurement": "Proliferation of human peripheral blood mononuclear cells, PHA 10 μg/ml (cpm ± DS)", "setting": "[3]; Lactone 0.25 μg/ml", "value": "60428 ± 5820", "unit": "cpm"}, {"measurement": "Proliferation of human peripheral blood mononuclear cells, PHA + rhIL-2 (cpm ± DS)", "setting": "[3]; Lactone 0.25 μg/ml", "value": "144693 ± 9470", "unit": "cpm"}, {"measurement": "Proliferation of human peripheral blood mononuclear cells, Medium (cpm ± DS)", "setting": "[3]; Lactone 100 μg/ml", "value": "47 ± 5", "unit": "cpm"}, {"measurement": "Proliferation of human peripheral blood mononuclear cells, PHA 10 μg/ml (cpm ± DS)", "setting": "[3]; Lactone 100 μg/ml", "value": "906 ± 251", "unit": "cpm"}, {"measurement": "Proliferation of human peripheral blood mononuclear cells, PHA + rhIL-2 (cpm ± DS)", "setting": "[3]; Lactone 100 μg/ml", "value": "341 ± 21", "unit": "cpm"}, {"measurement": "Stability over time of the product dissolved in dimethylsulphoxide (DMSO)", "setting": "[3]; one year at room temperature, 40.0 mg/ml in DMSO, judged by antiproliferative activity", "value": "the antiproliferative biological activity of lactone is demonstrated"}]}
